Data: patent US7034208B1, “Ahas inhibiting herbicide resistant wheat and method for selection thereof” (BASF Aktiengellschaft, priority 1991, dated 2006)

Columns and labels:
[1] = test system: wheat selections FS1-FS4 and Fidel; experiment: Field Trial I; type: in vivo; settings: 100 g/ha postemergent, yields 10 weeks after treatment
Protocol: A field study is conducted to evaluate the tolerance of the imidazolinone-resistant wheat selections, FS1-FS4, to postemergent applications of imidazolinone herbicides. The variety Fidel, from which these selections are derived, is included as a susceptible check. Because Fidel is a French winter wheat variety and unadapted to New Jersey, this test is intended to evaluate the relative effects of the herbicide treatments on grain yields rather than to measure actual yield potentials for the genotypes. Thus, yields are presented as grams/plot rather than bushels/acre or metric tons/ha.
M4 bulked seed from parental lines, FS1, FS2, FS3 and FS4 and Fidel wild-type, is used in this field trial. The trial is planted in an incomplete split plot design with the main plot as herbicide-rate combination and the split plot as genotypes. […] The plots are three meters long and 1.5 meters wide (7 rows with 7 inch spacing between rows) with approximately 25 seed planted per row. There is a one meter space between wheat lines and ten meters between replicates.
Treatments are applied at a rate of 400 L/ha with a tractor mounted sprayer. Tween 20™ is used as a surfactant at 0.25% v/v. Wheat is treated at the Z22 stage or approximately 6 inches tall. Plant height and damage ratings are taken at 3 and 6 weeks after treatment. Yields are taken 10 weeks after treatment.

[2] = test system: wheat selections FS2 and FS4 and Fidel; experiment: Postemergence Herbicide Tolerance, upper limits; type: in vivo; settings: four weeks after treatment
Excerpt: In this second greenhouse test, the upper limits of the mutant selections' resistance to postemergent applications of PURSUIT™ and Compound 2 are examined. M4 seed of two of the mutant selections, FS2 and FS4, and seed of Fidel are used in this experiment. Five seeds from each line are planted per pot in sterile Metro Mix 350™ in six inch Azalea pots. Immediately prior to herbicide treatment, these plants are thinned to three plants per pot. Three replicates are used per treatment (chemical & rate) for each line, and six replicates per wheat line are used as untreated controls. The plants are sprayed postemergence, 10 days after planting, with the following herbicides and rates (g/ha):
The herbicides are applied as previously described. Plant height is measured immediately prior to spraying. Plant heights are also measured at two and four weeks after treatment, and shoot fresh weights measured at seven weeks after treatment.

[3] = test system: AHAS (acetohydroxyacid synthase); experiment: AHAS enzyme assay, Initial Assay (M3 Plants); type: biochemical, wheat
Protocol: Herbicide Application: M3 plants from the four initial mutant plants (FS1, FS2, FS3 and FS4), are tested for metabolic AHAS (acetohydroxyacid synthase) activity. […] When these plants are three weeks old, two plants of each mutant selection, FS1-FS4, receive a second application of PURSUIT™ at 62.5 g/ha while two of each selection are left unsprayed. Sprayed and unsprayed susceptible Fidel plants are also included in this experiment. […] Compound 9 is 2-acetamido-2,3-dimethyl-N-(p-tolylsulfonyl)butyramide, and is described in U.S. Pat. No. 4,883,914.
Enzyme Extraction: For the extraction of AHAS, 10 grams of tissue are powdered in liquid nitrogen and then homogenized in 100 mM potassium phosphate buffer (pH 7.5) containing 10 mM pyruvate, 5 mM MgCl2, 5 uM EDTA, 100 uM FAD, 1 mM valine, 1 mM leucine, 10% glycerol, and 10 mM cysteine. The homogenate is filtered through a nylon cloth (53 uM mesh) and centrifuged at 25,000 g for 20 minutes. […]
AHAS Assay: AHAS activity is measured by estimation of the product, acetolactate, after conversion by decarboxylation in the presence of acid to acetoin. […] The acetoin formed is determined by incubating with creatine (0.17%) and 1-napthol (1.7% in 4N NaOH) by the method of Westerfield (Westerfield, W. W., J. Biol. Chem., 161, 495-502 (1945)). […] The absorption of color complex is measured at 520 nm. […]

SMILES: CCc1cnc(C2=NC(C)(C(C)C)C(=O)N2)c(C(=O)O)c1 (stereo not shown) [PURSUIT, 5-ethyl-2-(4-isopropyl-4-methyl-5-oxo-2-imidazolin-2-yl)-nicotinic acid]
- yield reduction [1]: 35%
- rates up to which FS2 and FS4 plant heights equal the untreated controls [2]: 500-1000 g/ha
- resistance of AHAS to inhibition ([3]; FS1-FS4 M3 plants sprayed with 62.5 g/ha PURSUIT, compared to sprayed wild type): dramatic increase in the AHAS resistance
- resistance of AHAS to inhibition ([3]; resistant wheat lines, unsprayed M3 plants): weak resistance
